In brackets after ≈: the same amount, converted by molar mass. Like-named read-outs stand apart in the source and are kept apart here.
System: Streptococcus pyogenes
Assay: In vitro minimum inhibitory concentration (MIC) vs. Strep. pyogenes
Type: cell-based
Settings: for MIC: Streptococcus pyogenes, read-out: MIC vs. Strep. pyogenes
Method: The antibacterial penam compounds of the instant invention show activity against a wide variety of gram-positive and gram-negative bacteria. […] The broth is inoculated with the bacterial culture, and with the test antibiotic, and then it is incubated overnight. On the next day, the test is read visually. The minimum inhibitory concentration (MIC) is the lowest concentration of antibiotic which prevents turbidity, i.e., which prevents growth of the microorganism. In vitro activities of several of the penam compounds of the invention are presented later in this specification.
In Table II, the minimum inhibitory concentrations (MIC's) of compounds of formula I, wherein R^2 is hydrogen, against a strain of Streptococcus pyogenes, are reported; and in Table III, minimum inhibitory concentrations of compounds of formula I, wherein R^2 is hydrogen, against a strain of Staphylococcus aureus, are presented. Because of the tautomeric nature of such tetrazole derivatives, referred to hereinbefore,each of the preparations tested also contains some of the corresponding compound of formula II, wherein R^3 is hydrogen.

[1] = Table II, two-fold serial dilution, Brain-Heart Infusion broth, overnight

Compound: CC1(C)S[C@@H]2[C@H](NC(=O)Cc3sccc3CN)C(=O)N2[C@H]1c1nnn[nH]1 [2-(3-aminomethyl-2-thienyl)-acetyl, 6-(2-[3-Aminomethyl-2-thienyl]acetamido)-2,2-dimethyl-3-(5-tetrazolyl)penam]
- MIC: ≤ 0.1 µg/mL

Compound: CC1(C)S[C@@H]2[C@H](NC(=O)[C@H](NC(=O)CCNC(=N)c3cc[n+]([O-])cc3)c3ccccc3)C(=O)N2[C@H]1c1nnn[nH]1
- MIC [1]: 3.12 µg/mL (≈ 5.53 µM)

Compound: COc1cccc(OC)c1C(=O)N[C@@H]1C(=O)N2[C@@H]1SC(C)(C)[C@@H]2c1nnn[nH]1 [2,6-dimethoxybenzoyl, 6-(2,6-dimethoxybenzamido)-2,2-dimethyl-3-(5-tetrazolyl)penam]
- MIC [1]: 0.2 µg/mL (≈ 0.494 µM)

Compound: CC1(C)S[C@@H]2[C@H](NC(=O)[C@H](NC(=O)C(=O)Oc3ccccc3)c3ccccc3)C(=O)N2[C@H]1c1nnn[nH]1
- MIC [1]: 25 µg/mL (≈ 47.9 µM)

Compound: CC1(C)S[C@@H]2[C@H](NC(=O)[C@H](N)c3ccc(O)c(Cl)c3)C(=O)N2[C@H]1c1nnn[nH]1 [6-(D-2-amino-2-[3-chloro-4-hydroxyphenyl]acetamido)-2,2-dimethyl-3-(5-tetrazolyl)penam]
- MIC: 0.1 µg/mL (≈ 0.236 µM)

Compound: CCCS(=O)(=O)N[C@@H](C(=O)N[C@@H]1C(=O)N2[C@@H]1SC(C)(C)[C@@H]2c1nn[nH]n1)c1ccc(O)cc1 [6-(D-2-[Propanesulfonamido]-2-[p-hydroxyphenyl]acetamido-)-2,2-dimethyl-3-(5-tetrazolyl)penam]
- MIC: 0.1 µg/mL (≈ 0.202 µM)

Compound: CC1(C)S[C@@H]2[C@H](NC(=O)[C@H](NC(=O)CSc3ncc[nH]3)c3ccccc3)C(=O)N2[C@H]1c1nn[nH]n1
- MIC [1]: 0.2 µg/mL (≈ 0.389 µM)

Compound: CC1(C)S[C@@H]2[C@H](NC(=O)[C@H](NC(=O)NC(=O)C34CC5CC(CC(C5)C3)C4)c3ccccc3)C(=O)N2[C@H]1c1nn[nH]n1
- MIC: < 0.1 µg/mL

Compound: CC1(C)S[C@@H]2[C@H](NC(=O)[C@H](NC(=O)CCNC(=N)c3ccccc3)c3ccccc3)C(=O)N2[C@H]1c1nnn[nH]1
- MIC [1]: 3.12 µg/mL (≈ 5.7 µM)

Compound: CC1(C)S[C@@H]2[C@H](NC(=O)[C@H](NC(=O)Cc3ccc(Br)cc3)c3ccccc3)C(=O)N2[C@H]1c1nnn[nH]1
- MIC [1]: 0.2 µg/mL (≈ 0.351 µM)

Compound: CC1(C)S[C@@H]2[C@H](NC(=O)[C@H](NC(=O)CNC(=N)c3cc(Cl)cc(S(N)(=O)=O)c3)c3ccccc3)C(=O)N2[C@H]1c1nnn[nH]1
- MIC [1]: 0.004 µg/mL (≈ 0.00618 µM)

Compound: CC1(C)S[C@@H]2[C@H](NC(=O)[C@H](NC(=O)CNC(=N)c3ccncc3)c3ccc(O)cc3)C(=O)N2[C@H]1c1nnn[nH]1 [6-(D-2-[2-(4-Pyridinecarboxamidino)acetamido]-2-(p-hydroxyphenyl]acetamido)-2,2-dimethyl-3-(5-tetrazolyl)penam]
- MIC: < 0.1 µg/mL

Compound: CCNC(=O)NCC(=O)N[C@@H](C(=O)N[C@@H]1C(=O)N2[C@@H]1SC(C)(C)[C@@H]2c1nnn[nH]1)c1ccccc1 [6-(D-2-[2-(3-Ethylureiod)acetamido]-2-phenylacetamido)-2,2-dimethyl-3-(5-tetrazolyl)penam]
- MIC: < 0.1 µg/mL

Compound: CC1(C)S[C@@H]2[C@H](NC(=O)[C@H](NC(=O)c3ccco3)c3ccccc3)C(=O)N2[C@H]1c1nnn[nH]1 [D-2-(2-furancarboxamido)-2-phenylacetyl]
- MIC: 0.1 µg/mL (≈ 0.214 µM)

Compound: CC1(C)S[C@@H]2[C@H](NC(=O)[C@H](NC(=O)CNC(=N)c3cc(Br)cc(S(N)(=O)=O)c3)c3ccccc3)C(=O)N2[C@H]1c1nnn[nH]1
- MIC [1]: 0.004 µg/mL (≈ 0.00578 µM)

Compound: CC1(C)S[C@@H]2[C@H](NC(=O)C(N)c3ccc(S(N)(=O)=O)cc3)C(=O)N2[C@H]1c1nnn[nH]1 (mixture of isomers) [DL-2-amino-2-(p-sulfamoylphenyl)acetyl]
- MIC: < 0.1 µg/mL

Compound: CC1(C)S[C@@H]2[C@H](NC(=O)[C@H](NC(=O)CNC(=O)NC(=N)N)c3ccccc3)C(=O)N2[C@H]1c1nn[nH]n1
- MIC [1]: 3.12 µg/mL (≈ 6.05 µM)

Compound: CC1(C)S[C@@H]2[C@H](NC(=O)[C@@H](N)Cc3ccc(O)cc3)C(=O)N2[C@H]1c1nn[nH]n1 [L-2-amino-3-(p-hydroxyphenyl)propionyl, 6-(L-2-amino-3-[4-hydroxyphenyl]propionamido)-2,2-dimethyl-3-(5-tetrazoyl)penam]
- MIC [1]: 0.2 µg/mL (≈ 0.496 µM)

Compound: CC1(C)S[C@@H]2[C@H](NC(=O)[C@H](NS(=O)(=O)c3cccs3)c3ccccc3)C(=O)N2[C@H]1c1nn[nH]n1
- MIC [1]: 0.39 µg/mL (≈ 0.751 µM)

Compound: CCS(=O)(=O)N[C@@H](C(=O)N[C@@H]1C(=O)N2[C@@H]1SC(C)(C)[C@@H]2c1nn[nH]n1)c1ccccc1 [D-2-(ethanesulfonamido)-2-phenylacetyl]
- MIC [1]: 0.39 µg/mL (≈ 0.838 µM)

Compound: CC1(C)S[C@@H]2[C@H](NC(=O)C(CN)c3ccccc3)C(=O)N2[C@H]1c1nnn[nH]1 (mixture of isomers) [DL-3-amino-2-phenylpropionyl, 6-(DL-3-amino-2-phenylpropionamido)-2,2-dimethyl-3-(5-tetrazolyl)penam]
- MIC [1]: 12.5 µg/mL

Compound: CCOC(=O)C(=O)N[C@@H](C(=O)N[C@@H]1C(=O)N2[C@@H]1SC(C)(C)[C@@H]2c1nnn[nH]1)c1ccccc1
- MIC: < 0.1 µg/mL

Compound: CC1(C)S[C@@H]2[C@H](NC(=O)Cc3ccc(CN=[N+]=[N-])s3)C(=O)N2[C@H]1c1nnn[nH]1 [2-(5-azidomethyl-2-thienyl)-acetyl, 6-(2-[5-Azidomethyl-2-thienyl]acetamido)-2,2-dimethyl-3-(5-tetrazolyl)penam]
- MIC: ≤ 0.1 µg/mL

Compound: CC1(C)S[C@@H]2[C@H](NC(=O)[C@H](NC(=O)COc3ccccc3)c3ccc(O)cc3)C(=O)N2[C@H]1c1nnn[nH]1 [6-(D-2-[2-Phenoxyacetamido]-2-[4-hydroxyphenyl]acetamido)-2,2-dimethyl-3-(5-tetrazol-5-yl)penam]
- MIC [1]: 0.2 µg/mL (≈ 0.382 µM)

Compound: CC1(C)S[C@@H]2[C@H](NC(=O)[C@H](NC(=O)CSc3ccccc3)c3ccccc3)C(=O)N2[C@H]1c1nnn[nH]1
- MIC: < 0.1 µg/mL

Compound: CC1(C)S[C@@H]2[C@H](NC(=O)[C@H](NC(=O)CNC(=O)NS(C)(=O)=O)c3ccccc3)C(=O)N2[C@H]1c1nnn[nH]1
- MIC [1]: 0.2 µg/mL (≈ 0.363 µM)

Compound: CC(=O)NCCC(=O)N[C@@H](C(=O)N[C@@H]1C(=O)N2[C@@H]1SC(C)(C)[C@@H]2c1nnn[nH]1)c1ccccc1
- MIC: < 0.1 µg/mL

Compound: CCNC(=N)NC(=O)NCC(=O)N[C@@H](C(=O)N[C@@H]1C(=O)N2[C@@H]1SC(C)(C)[C@@H]2c1nn[nH]n1)c1ccccc1
- MIC: < 0.1 µg/mL

Compound: CC1(C)S[C@@H]2[C@H](NC(=O)[C@H](NC(=O)CNC(=O)c3ccc([N+](=O)[O-])cc3)c3ccccc3)C(=O)N2[C@H]1c1nnn[nH]1
- MIC: < 0.1 µg/mL

Compound: CC1(C)S[C@@H]2[C@H](NC(=O)[C@H](NC(=O)CCNC(=N)c3ccncc3)c3ccccc3)C(=O)N2[C@H]1c1nnn[nH]1
- MIC: < 0.1 µg/mL

Compound: CC1(C)S[C@@H]2[C@H](N3CN[C@H](c4ccc(O)cc4)C3=O)C(=O)N2[C@H]1c1nnn[nH]1 [6-(5-Oxo-4-[p-hydroxyphenyl]-1-imidazolidinyl)-2,2-dimethyl-3-(5-tetrazolyl)penam]
- MIC (Table IV): 6.25 µg/mL (≈ 15.6 µM)

Compound: 6-(2-Phenylacetamido)-2,2-dimethyl-3-(1-pivaloyloxymethyl]-tetrazol-5-yl)penam and 6-(2-Phenylacetamido)-2,2-dimethyl-3-(2-[pivaloyloxylmethyl]tetrazol-5-yl)penam
- MIC against Strep. pyogenes (Examples): 0.2 µg/mL
- MIC vs. Strep. pyogenes (Table IV): 0.2 µg/mL

Compound: CC1(C)S[C@@H]2[C@H](NC(=O)[C@H](NC(=O)Cc3cccs3)c3ccccc3)C(=O)N2[C@H]1c1nnn[nH]1
- MIC: 0.1 µg/mL (≈ 0.201 µM)

Compound: COc1ccc(C(=N)NC(=O)NCC(=O)N[C@@H]2C(=O)N3[C@@H]2SC(C)(C)[C@@H]3c2nnn[nH]2)cc1
- MIC: 0.1 µg/mL (≈ 0.211 µM)

Compound: CC(=N)NCCC(=O)N[C@@H](C(=O)N[C@@H]1C(=O)N2[C@@H]1SC(C)(C)[C@@H]2c1nnn[nH]1)c1ccccc1
- MIC: < 0.1 µg/mL

Reference: patent publication US4115385A, “Antibacterial 3-(5-tetrazolyl) penam compounds” (Pfizer Inc., priority 1977, dated 1978)
